Source: the OligoGym collection
Values joined by “and” are separate entries in the source; they are usually repeats but may differ in a detail not shown here. Equal values may be shown once. After the bases stand the sugars from the 5' end (letter, count) and the backbone: PS all phosphorothioate, else s phosphorothioate and o phosphodiester by linkage. Methylation of C is not given here. k = constrained ethyl (cEt); d = 2'-deoxy (DNA)

These sequences were tested against MALAT1. Conditions: ASO, A431, 0.005 µM.

First: TGGAAAGCGAGTTCAA (sugars k3 d10 k3, PS)
Second: TAAGTTGGTAATTACT (sugars k3 d10 k3, PS)
The target mRNA inhibition of the first is lower: -4% for the first, 17% for the second.

Compared with TACTTTCCATTACGCA (sugars k3 d10 k3, PS), ACATGCCAGTTACTCC (sugars k3 d10 k3, PS) is higher in target mRNA inhibition: 16% for the first, 39% for the second.

Going from TTGCAGGGACGGTTGA (sugars k3 d10 k3, PS) to GAACCACAACAATTTA (sugars k3 d10 k3, PS), the target mRNA inhibition rises from -10% to 19%.

Going from GCCATGGTTGATATTT (sugars k3 d10 k3, PS) to ATAGACCCCTGACTTT (sugars k3 d10 k3, PS), the target mRNA inhibition rises from 9% to 34%.

First: CCAGCCTATAAGGACA (sugars k3 d10 k3, PS)
Second: AAAGATATTGTGCTGT (sugars k3 d10 k3, PS)
The target mRNA inhibition of the first is lower: -1% for the first, 11% for the second.

First: GGCAAATCGCCATGGA (sugars k3 d10 k3, PS)
Second: ACCCAGCATTACAGTT (sugars k3 d10 k3, PS)
The target mRNA inhibition of the first is higher: 22% for the first, 8% for the second.

TCTAGACAGACCTAAG (sugars k3 d10 k3, PS) and GTATGAGCTTCAGACC (sugars k3 d10 k3, PS) are the same in target mRNA inhibition: -6% for the first, -6% for the second.

Going from CTTCAGGATCATTAAG (sugars k3 d10 k3, PS) to GGCAGTTATATTAGGT (sugars k3 d10 k3, PS), the target mRNA inhibition rises from 3% to 16%.

First: ATTTTGTCCACTGGTG (sugars k3 d10 k3, PS)
Second: CAGCACATCATGCTAT (sugars k3 d10 k3, PS)
The target mRNA inhibition of the first is higher: 50% for the first, 15% for the second.

Compared with CTCCCCTTCAAGCACC (sugars k3 d10 k3, PS), CGCTTTTATTCTGCTT (sugars k3 d10 k3, PS) is higher in target mRNA inhibition: 4% for the first, 6% for the second.

Compared with TCTCGGGCTGCAGGCT (sugars k3 d10 k3, PS), GAGTTTGAGTGGTTTT (sugars k3 d10 k3, PS) is higher in target mRNA inhibition: 20% for the first, 26% for the second.

First: GTCCCATAACTGATCT (sugars k3 d10 k3, PS)
Second: TACTGAAAACTCCCCC (sugars k3 d10 k3, PS)
The target mRNA inhibition of the first is higher: 35% for the first, 22% for the second.

Compared with ATGGATCATGCCCACA (sugars k3 d10 k3, PS), AGTAGGTATAGTTTAC (sugars k3 d10 k3, PS) is lower in target mRNA inhibition: 12% for the first, 10% for the second.

Compared with CAAATTAATGCACTGG (sugars k3 d10 k3, PS), CAATCACAAATACGAC (sugars k3 d10 k3, PS) is higher in target mRNA inhibition: 15% for the first, 18% for the second.

First: TGAAGAATACCATCTG (sugars k3 d10 k3, PS)
Second: CAGTAGTAAGAATCTC (sugars k3 d10 k3, PS)
The target mRNA inhibition of the first is lower: 30% for the first, 54% for the second.

Compared with CATATTGCCGACCTCA (sugars k3 d10 k3, PS), TCACCAAGGAGCTGTT (sugars k3 d10 k3, PS) is lower in target mRNA inhibition: 43% for the first, 12% for the second.

Compared with AATAAGCACTTATCCC (sugars k3 d10 k3, PS), AAAAGGCTCGATGGAA (sugars k3 d10 k3, PS) is lower in target mRNA inhibition: 31% for the first, 11% for the second.

Going from AGGATGAAATGCCTCT (sugars k3 d10 k3, PS) to TGTCAATTTATAGACC (sugars k3 d10 k3, PS), the target mRNA inhibition falls from 22% to 6%.

Going from AACTCCAAGAACTAGC (sugars k3 d10 k3, PS) to CAGCAGTAGGGCTTCT (sugars k3 d10 k3, PS), the target mRNA inhibition falls from 30% to -1%.

Compared with TAAAAAGGCTCGATGG (sugars k3 d10 k3, PS), ACCACCACCTGGAATG (sugars k3 d10 k3, PS) is lower in target mRNA inhibition: 39% for the first, 22% for the second.

First: AACATTTGGCCTACTC (sugars k3 d10 k3, PS)
Second: TTGCACTCGCTCCTTC (sugars k3 d10 k3, PS)
The target mRNA inhibition of the first is higher: 42% for the first, 33% for the second.

First: ATCTCAACCTCCGTCA (sugars k3 d10 k3, PS)
Second: CCTTAAAGTTACATTC (sugars k3 d10 k3, PS)
The target mRNA inhibition of the first is higher: 34% for the first, 33% for the second.

Compared with CAGTACTGCATTTACT (sugars k3 d10 k3, PS), TACCATAAGTAAGTTC (sugars k3 d10 k3, PS) is lower in target mRNA inhibition: 20% for the first, 4% for the second.

First: GAGAAATCGGAGCAGC (sugars k3 d10 k3, PS)
Second: AGTAAGAATCTCAGGG (sugars k3 d10 k3, PS)
The target mRNA inhibition of the first is lower: 15% for the first, 45% for the second.

With CTAAGCAATATCTTAG (sugars k3 d10 k3, PS) the target mRNA inhibition was 15%.

TCCGTTACGAAAGTCC (sugars k3 d10 k3, PS) was tested, and the target mRNA inhibition was 64% and 59% and 50%.
For AATGCTAGTCCTCAGG (sugars k3 d10 k3, PS), the target mRNA inhibition was 57% and 78%.
For GTCCTTTTAGTAGCTT (sugars k3 d10 k3, PS), the target mRNA inhibition was 50% and 72%.
TTAACAATTTGCAGGC (sugars k3 d10 k3, PS) was tested, and the target mRNA inhibition was 66% and 79%.
AAGCACCGCTTGAGAT (sugars k3 d10 k3, PS) was tested, and the target mRNA inhibition was 8% and 13%.
In the case of TCATCTCAACCTCCGT (sugars k3 d10 k3, PS), the target mRNA inhibition is reported as 57% and 49%.
For CAGGGTTATGCTTATT (sugars k3 d10 k3, PS), the target mRNA inhibition was 75% and 66%.
In the case of TTCGCTTTTATTCTGC (sugars k3 d10 k3, PS), the target mRNA inhibition is reported as 69% and 88%.
